Results published in US9133115B2 (ACHILLION PHARMACEUTICALS, INC., priority 2008, dated 2015).

System: HCV replicon
Test: HCV replicon replication assay (NPT ELISA) in Huh-7 replicon-containing cells
Assay type: cell-based
Settings: Hepatitis C virus, 72 h; HCV replicon in Huh-7 cells, three days incubation; read-out: EC50
Outline: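 Replication was scored by capture ELISA of neomycin phosphotransferase, whose level tracks replicon replication, after graded compound treatment. The cells were Huh-7 harbouring an HCV-IRES/neo/EMCV-IRES/NS3–NS5B/3′-NTR replicon, plated at 6000-7500 cells/well and dosed 24 h later at 60-70% confluence; interferon alpha was the positive control.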

| SMILES | EC50 [nM] |
| --- | --- |
| C=C[C@@H]1C[C@]1(NC(=O)[C@@H]1C[C@@H](Oc2cc(-c3ccccc3)nc3cc(OC)ccc23)CN1C(=O)[C@@H](CC(=O)N1CCCCC1)CC1CC1)C(=O)NS(=O)(=O)C1CC1 [Compound 124, (2S,4R)-1-((R)-2-(cyclopropylmethyl)-4-oxo-4-(piperidin-1-yl)butanoyl)-N-((1R,2S)-1-(cyclopropylsulfonyl-carbamoyl)-2-vinylcyclopropyl)-4-(7-methoxy-2-phenylquinolin-4-yloxy)pyrrolidine-2-carboxamide] | < 1000 |
| C=C[C@@H]1C[C@]1(NC(=O)[C@@H]1C[C@@H](Oc2cc(-c3ccccc3)nc3cc(OC)ccc23)CN1C(=O)[C@@H](CC(=O)N1CCCCC1c1nc2cc(F)ccc2[nH]1)C(C)(C)C)C(=O)NS(=O)(=O)C1CC1 (stereo partly drawn) [Compound 125, (2S,4R)-1-((2S)-2-tert-butyl-4-(2-(5-fluoro-1H-benzo[d]imidazol-2-yl)piperidin-1-yl)-4-oxobutanoyl)-N-((1R,2S)-1-(cyclo-propylsulfonyl-carbamoyl)-2-vinylcyclopropyl)-4-(7-methoxy-2-phenylquinolin-4-yloxy)pyrrolidine-2-carboxamide] | < 1000 |
| C=C[C@@H]1C[C@]1(NC(=O)[C@@H]1C[C@@H](Oc2cc(-c3ccccc3)nc3cc(OC)ccc23)CN1C(=O)[C@@H](CC(=O)n1c(C2CCCCN2)nc2cc(F)ccc21)C(C)(C)C)C(=O)NS(=O)(=O)C1CC1 (stereo partly drawn) [Compound 126, (2S,4R)-1-((2S)-2-tert-butyl-4-(5-fluoro-2-(piperidin-2-yl)-1H-benzo[d]imidazol-1-yl)-4-oxobutanoyl)-N-((1R,2S)-1-(cyclo-propylsulfonyl-carbamoyl)-2-vinylcyclopropyl)-4-(7-methoxy-2-phenylquinolin-4-yloxy)pyrrolidine-2-carboxamide] | < 1000 |
| CC(C)(C)[C@H](CC(=O)N1CCCCC1)C(=O)N1C[C@H](n2cnc3ccccc32)C[C@H]1C(=O)NCC(=O)NS(=O)(=O)C1CC1 [Compound 127, (2S,4R)-4-(1H-benzo[d]imidazol-1-yl)-1-((S)-2-tert-butyl-4-oxo-4-(piperidin-1-yl)butanoyl)-N-(2-(cyclopropane-sulfonamido)-2-oxoethyl)pyr-rolidine-2-carboxamide] | 1000 to 10000 |
| C=C[C@@H]1C[C@]1(NC(=O)[C@@H]1C[C@@H](n2nnc(-c3ccccc3)c2-c2ccccc2)CN1C(=O)[C@@H](CC(=O)N1CCCCC1)C(C)(C)C)C(=O)NS(=O)(=O)C1CC1 [Compound 128, (2S,4R)-1-((S)-2-tert-butyl-4-oxo-4-(piperidin-1-yl)butanoyl)-N-((1R,2S)-1-(cyclo-propylsulfonyl-carbamoyl)-2-vinylcyclopropyl)-4-(4,5-diphenyl-1H-1,2,3-triazol-1-yl)pyrrolidine-2-carboxamide] | 1000 to 10000 |
| C=C[C@@H]1C[C@]1(NC(=O)[C@@H]1C[C@@H](OC(=O)N(c2ccccc2)c2ccccc2)CN1C(=O)[C@@H](CC(=O)N1CCCCC1)C(C)(C)C)C(=O)NS(=O)(=O)C1CC1 [Compound 129, (3R,5S)-1-((S)-2-tert-butyl-4-oxo-4-(piperidin-1-yl)butanoyl)-5-((1R,2S)-1-(cyclopropylsulfon-ylcarbamoyl)-2-vinylcyclopropyl-carbamoyl)pyr-rolidin-3-yl diphenylcarbamate] | 1000 to 10000 |
| C=C[C@@H]1C[C@]1(NC(=O)[C@@H]1C[C@@H](OC(=O)N2c3ccccc3CCc3ccccc32)CN1C(=O)[C@@H](CC(=O)N1CCCCC1)C(C)(C)C)C(=O)NS(=O)(=O)C1CC1 [Compound 130, (3R,5S)-1-((S)-2-tert-butyl-4-oxo-4-(piperidin-1-yl)butanoyl)-5-((1R,2S)-1-(cyclo-propylsulfonyl-carbamoyl)-2-vinyl-cyclopropylcarbamo-yl)pyrrolidin-3-yl 10,11-dihydro-5H-dibenzo[b,f]azepine-5-carboxylate] | 1000 to 10000 |
| C=C[C@@H]1C[C@]1(NC(=O)[C@@H]1C[C@@H](OC(=O)N2c3ccccc3C=Cc3ccccc32)CN1C(=O)[C@@H](CC(=O)N1CCCCC1)C(C)(C)C)C(=O)NS(=O)(=O)C1CC1 [Compound 131, (Z)-((3R,5S)-1-((S)-2-tert-butyl-4-oxo-4-(piperidin-1-yl)butanoyl)-5-((1R,2S)-1-(cyclopropylsulfon-ylcarbamoyl)-2-vinylcyclopropyl-carbamoyl)pyr-rolidin-3-yl)5H-dibenzo[b,f]azepine-5-carboxylate] | 1000 to 10000 |
| C=C[C@@H]1C[C@]1(NC(=O)[C@@H]1C[C@H](Oc2cc(-c3ccccc3)nc3cc(OC)ccc23)CN1C(=O)[C@@H](CC(=O)N1CCCCC1)C(C)(C)C)C(=O)NS(=O)(=O)C1CC1 [Compound 132, (2S,4S)-1-((S)-2-tert-butyl-4-oxo-4-(piperidin-1-yl)butanoyl)-N-((1R,2S)-1-(cyclo-propylsulfonyl-carbamoyl)-2-vinylcyclopropyl)-4-(7-methoxy-2-phenylquinolin-4-yloxy)pyrrolidine-2-carboxamide] | < 1000 |
| C=C[C@@H]1C[C@]1(NC(=O)[C@@H]1C[C@@H](Oc2nc3ccccc3nc2-c2ccccc2)CN1C(=O)[C@@H](CC(=O)N1CCCCC1)C(C)(C)C)C(=O)NS(=O)(=O)C1CC1 [Compound 133, (2S,4R)-1-((S)-2-tert-butyl-4-oxo-4-(piperidin-1-yl)butanoyl)-N-((1R,2S)-1-(cyclo-propylsulfonyl-carbamoyl)-2-vinyl-cyclopropyl)-4-(3-phenylquinoxalin-2-yloxy)pyrrolidine-2-carboxamide] | 1000 to 10000 |
| C=C[C@@H]1C[C@]1(NC(=O)[C@@H]1C[C@@H](Oc2cc(-c3ccccc3)nc3cc(OC)ccc23)CN1C(=O)[C@H](CC(=O)N1CCCCC1)C(C)(C)C)C(=O)NS(=O)(=O)C1CC1 [Compound 134, (2S,4R)-1-((R)-2-tert-butyl-4-oxo-4-(piperidin-1-yl)butanoyl)-N-((1R,2S)-1-(cyclo-propylsulfonyl-carbamoyl)-2-vinylcyclopropyl)-4-(7-methoxy-2-phenylquinolin-4-yloxy)pyrrolidine-2-carboxamide] | 1000 to 10000 |
| C=C[C@@H]1C[C@]1(NC(=O)[C@@H]1C[C@@H](Oc2cc(-c3ccccc3)nc3cc(OC)ccc23)CN1C(=O)[C@@H](CC(=O)N1CCCCC1)C(C)(C)C)C(=O)NS(=O)(=O)C(C)CC (stereo partly drawn) [Compound 135, (2S,4R)-1-((S)-2-tert-butyl-4-oxo-4-(piperidin-1-yl)butanoyl)-N-((1R,2S)-1-(sec-butylsulfonyl-carbamoyl)-2-vinylcyclopropyl)-4-(7-methoxy-2-phenylquinolin-4-yloxy)pyrrolidine-2-carboxamide] | < 1000 |
| C=C[C@@H]1C[C@]1(NC(=O)[C@@H]1C[C@@H](Oc2cc(-c3ccccc3)nc3cc(OC)ccc23)CN1C(=O)[C@@H](CC(=O)N1CCCCC1)C(C)(C)C)C(=O)NS(=O)(=O)CCC [Compound 136, (2S,4R)-1-((S)-2-tert-butyl-4-oxo-4-(piperidin-1-yl)butanoyl)-4-(7-methoxy-2-phenylquinolin-4-yloxy)-N-((1R,2S)-1-(propylsulfonyl-carbamoyl)-2-vinyl-cyclopropyl)pyr-rolidine-2-carboxamide] | < 1000 |
| C=C[C@@H]1C[C@]1(NC(=O)[C@@H]1C[C@@H](Oc2cc(-c3csc(N(C)C)n3)nc3cc(OC)ccc23)CN1C(=O)[C@@H](CC(=O)N1CCCCC1)C(C)(C)C)C(=O)NS(=O)(=O)C1CC1 [Compound 137, (2S,4R)-1-((S)-2-tert-butyl-4-oxo-4-(piperidin-1-yl)butanoyl)-N-((1R,2S)-1-(cyclo-propylsulfonyl-carbamoyl)-2-vinylcyclopropyl)-4-(2-(2-(dimethyl-amino)thiazol-4-yl)-7-methoxyquinolin-4-yloxy)pyrrolidine-2-carboxamide] | < 1000 |
| C=C[C@@H]1C[C@]1(NC(=O)[C@@H]1C[C@@H](Oc2cc(-c3csc(N(C)C)n3)nc3cc(OC)ccc23)CN1C(=O)[C@@H](CC(=O)N1CCOCC1)C(C)(C)C)C(=O)NS(=O)(=O)C1CC1 [Compound 138, (2S,4R)-1-((S)-2-tert-butyl-4-morpholino-4-oxobutanoyl)-N-((1R,2S)-1-(cyclo-propylsulfonyl-carbamoyl)-2-vinyl-cyclopropyl)-4-(2-(2-(dimethylamino)thiazol-4-yl)-7-methoxyquinolin-4-yloxy)pyrrolidine-2-carboxamide] | < 1000 |
| C=C[C@@H]1C[C@]1(NC(=O)[C@@H]1C[C@@H](n2nc(-c3ccccc3)c(-c3ccccc3)n2)CN1C(=O)[C@@H](CC(=O)N1CCCCC1)C(C)(C)C)C(=O)NS(=O)(=O)C1CC1 [Compound 139, (2S,4R)-1-((S)-2-tert-butyl-4-oxo-4-(piperidin-1-yl)butanoyl)-N-((1R,2S)-1-(cyclopropyl-sulfonylcarbamoyl)-2-vinylcyclopropyl)-4-(4,5-diphenyl-2H-1,2,3-triazol-2-yl)pyrrolidine-2-carboxamide] | < 1000 |
| C=C[C@@H]1C[C@]1(NC(=O)[C@@H]1C[C@@H](Oc2cc(-c3ccccc3)nc3cc(OC)ccc23)CN1C(=O)[C@@H](CC(=O)N1CCCC[C@H]1c1cccnc1)C(C)(C)C)C(=O)NS(=O)(=O)C1CC1 [Compound 140, (2S,4R)-1-((S)-2-tert-butyl-4-oxo-4-((S)-2-(pyridin-3-yl)piperidin-1-yl)butanoyl)-N-((1R,2S)-1-(cyclo-propylsulfonyl-carbamoyl)-2-vinylcyclopropyl)-4-(7-methoxy-2-phenylquinolin-4-yloxy)pyrrolidine-2-carboxamide] | < 1000 |
| C=C[C@@H]1C[C@]1(NC(=O)[C@@H]1C[C@@H](Oc2cc(-c3ccccc3)nc3cc(OC)ccc23)CN1C(=O)[C@@H](CC(=O)N1CCCC(=O)C1)C(C)(C)C)C(=O)NS(=O)(=O)C1CC1 [Compound 141, (2S,4R)-1-((S)-2-tert-butyl-4-oxo-4-(3-oxopiperidin-1-yl)butanoyl)-N-((1R,2S)-1-(cyclo-propylsulfonyl-carbamoyl)-2-vinylcyclopropyl)-4-(7-methoxy-2-phenylquinolin-4-yloxy)pyrrolidine-2-carboxamide] | < 1000 |
